Where “and” joins values, the source holds several entries; their conditions need not be identical. Identical values can stand only once.
Assays:
BT-474 [1] = assay: drug sensitivity score (DSS), CellTox Green (DSS (AUC-based score)); higher = stronger drug effect (viability inhibition or cytotoxicity); extreme values may be limits of the assay; conditions: incubation time: 72 h
How it was run: (§1)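 The drug sensitivity score reflects the area under a fitted dose-response curve. To obtain it, breast cancer cells in 20 µl suspension were seeded into 384-well plates containing compound at 5 concentrations, 10-fold apart over a compound-specific 10,000-fold range, and incubated 72 h. CellTox Green fluorescence (485/520 nm) was read first and CellTiter-Glo luminescence second, after 10 min at room temperature. Each plate was normalised to 0.1 % DMSO and a positive kill control.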

CAL-120 [2] = assay: as above; conditions: incubation time: 72 h
How it was run: as §1

HCC1599 [3] = assay: as above; conditions: incubation time: 72 h
How it was run: as §1

HCC1937 [4] = assay: as above; conditions: incubation time: 72 h
How it was run: as §1

HDQ-P1 [5] = assay: as above; conditions: incubation time: 72 h
How it was run: as §1

MCF-10A = assay: as above; conditions: incubation time: 72 h
How it was run: as §1

CAL-148 [6] = assay: normalised viability (% of control), CellTiter-Blue; higher = more viable cells (about 100 = DMSO control); conditions: 10000 nM; incubation time: 72 h
Method: (§2)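 DSRT, CellTiter-Blue viability, 72 h incubation. Signal is normalised to DMSO and benzethonium chloride controls. Value is the normalised response at dose 9.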

CAL-85-1 [7] = assay: as above; conditions: 10000 nM; incubation time: 72 h
Method: as §2

DU-4475 [8] = assay: as above; conditions: 10000 nM; incubation time: 72 h
Method: as §2

BT-549 = assay: normalised viability (% of control), CellTiter-Blue; higher = more viable cells (100 = DMSO, 0 = benzethonium chloride kill control); conditions: 1 nM; incubation time: 72 h
Method: (§3)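 DSRT, CellTiter-Blue viability, 72 h incubation. Signal is normalised to DMSO and benzethonium chloride controls. Value is the normalised response at dose 1.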

CAL-120 [9] = assay: as above; conditions: 1 nM; incubation time: 72 h
Method: as §3

CAL-148 [10] = assay: as above; conditions: 1 nM; incubation time: 72 h
Method: as §3

CAL-51 = assay: as above; conditions: 1 nM; incubation time: 72 h
Method: as §3

CAL-85-1 [11] = assay: as above; conditions: 1 nM; incubation time: 72 h
Method: as §3

DU-4475 [12] = assay: as above; conditions: 1 nM; incubation time: 72 h
Method: as §3

HCC1143 = assay: as above; conditions: 1 nM; incubation time: 72 h
Method: as §3

HCC1599 [13] = assay: as above; conditions: 1 nM; incubation time: 72 h
Method: as §3

HCC1937 [14] = assay: as above; conditions: 1 nM; incubation time: 72 h
Method: as §3

Hs578T = assay: as above; conditions: 1 nM; incubation time: 72 h
Method: as §3

MDA-MB-231 = assay: as above; conditions: 1 nM; incubation time: 72 h
Method: as §3

MDA-MB-436 = assay: as above; conditions: 1 nM; incubation time: 72 h
Method: as §3

MDA-MB-453 = assay: as above; conditions: 1 nM; incubation time: 72 h
Method: as §3

MDA-MB-468 = assay: as above; conditions: 1 nM; incubation time: 72 h
Method: as §3

MFM-223 = assay: as above; conditions: 1 nM; incubation time: 72 h
Method: as §3

SK-BR-3 = assay: as above; conditions: 1 nM; incubation time: 72 h
Method: as §3

HDQ-P1 [15] = assay: normalised viability (% of control), CellTiter-Blue; higher = more viable cells (about 100 = DMSO control); conditions: 10000 nM; incubation time: 72 h
Method: as §2

BT-474 [16] = assay: normalised viability (% of control), CellTiter-Blue; higher = more viable cells (100 = DMSO, 0 = benzethonium chloride kill control); conditions: 1 nM; incubation time: 72 h
Method: as §3

HDQ-P1 [17] = assay: as above; conditions: 1 nM; incubation time: 72 h
Method: as §3

Row | SMILES | drug sensitivity score (BT-474 [1]) | drug sensitivity score (CAL-120 [2]) | drug sensitivity score (HCC1599 [3]) | drug sensitivity score (HCC1937 [4]) | drug sensitivity score (HDQ-P1 [5]) | drug sensitivity score (MCF-10A) | normalised viability (CAL-148 [6]) | normalised viability (CAL-85-1 [7]) | normalised viability (DU-4475 [8]) | normalised viability (BT-549) | normalised viability (CAL-120 [9]) | normalised viability (CAL-148 [10]) | normalised viability (CAL-51) | normalised viability (CAL-85-1 [11]) | normalised viability (DU-4475 [12]) | normalised viability (HCC1143) | normalised viability (HCC1599 [13]) | normalised viability (HCC1937 [14]) | normalised viability (Hs578T) | normalised viability (MDA-MB-231) | normalised viability (MDA-MB-436) | normalised viability (MDA-MB-453) | normalised viability (MDA-MB-468) | normalised viability (MFM-223) | normalised viability (SK-BR-3) | normalised viability (HDQ-P1 [15]) [%] | normalised viability (BT-474 [16]) [%] | normalised viability (HDQ-P1 [17]) [%]
1 | Nc1ncnc2c1c(COc1cccc(Cl)c1)nn2C1CCOCC1 | 0 | 0 | 0 | 0 | 0 | 0 |  |  |  |  |  |  |  |  |  |  |  |  |  |  |  |  |  |  |  |  |  | 
2 | COc1ccccc1S(=O)(=O)Nc1ccc2c(c1)CN(C)C(=O)N2 [PFI-1] | 0 | 0 | 0 | 0 | 0 | 0 |  |  |  |  |  |  |  |  |  |  |  |  |  |  |  |  |  |  |  |  |  | 
3 | Cc1ccc(NC(=O)c2ccc(CN3CCN(C)CC3)cc2)cc1Nc1nccc(-c2cccnc2)n1 [Imatinib] | 0 | 0 | 0 | 0 | 0 | 0 | 80.5% and 92.7% | 87.7% and 85.9% | 121% and 110% | 104% and 116% | 88.5% and 91% | 86.2% and 97.6% | 99.8% and 100% | 87.5% and 85.1% | 99% and 111% | 88.9% and 93% | 109% and 104% | 81.9% and 101% | 99.3% and 102% | 90.8% and 95.5% | 90.1% and 106% | 106% and 102% | 102% and 105% | 93.1% and 97.1% | 89.3% and 102% |  |  | 
4 | NS(=O)(=O)OC[C@@H]1C[C@@H](n2ccc3c(N[C@H]4CCc5ccccc54)ncnc32)C[C@@H]1O [Pevonedistat] | 0 | 0 | 0.787 | 0 | 0 | 0 |  |  |  |  |  |  |  |  |  |  |  |  |  |  |  |  |  |  |  |  |  | 
5 | CN(C)CCN1C(=O)c2cccc3cc(N)cc(c23)C1=O [Amonafide] | 0 | 0 | 0 | 0 | 0 | 0 | 8.2% | 27.6% | 1.19% | 94.4% | 78.7% | 89.9% | 107% | 90% | 99.6% | 83.7% | 88.2% | 108% | 121% | 93.1% | 102% | 87.3% | 110% | 93% | 101% | 45.5 | 103 | 105

From the supplement of paper PMC4862054
